The text below walks through data of patent US20250345190A1, “DRUG ELUTING STENT” (SINO MEDICAL SCIENCES TECHNOLOGY INC., priority 2020, published 2025).

Molecules are shown by their SMILES. Read-outs that look alike come from different tables or passages of the source.

Data set [1] in a line: Porcine-PK study of BuMA Supreme stent (blood, myocardium, coronary artery tissue). Format: in vivo, Yucatan Miniature Swine. The protocol: Release of drug from the stent and local, regional, and systemic delivery of sirolimus/rapamycin was quantified by measuring the drug content in stented coronary artery segments. Drug remaining on the stent and found in tissue was measured at 1, 3, 7, 14, 21, 28, […], 90, and 150 day time points. Stents were implanted into Yucatan Miniature Swine pigs. The porcine and human arteries have correlatively similar anatomy and the porcine model is recommended for use in preclinical studies by the FDA, EMEA and Schwartz et al. Thirty-one Yucatan mini-swine were implanted in two of three coronary arteries: the left circumflex artery [LCx], left anterior descending artery [LAD] and right coronary artery [RCA] of each animal, when possible.
Pharmacokinetic analysis was performed for both Rabbit-PK (2014-002) and Porcine-PK (1792-318G) studies, using whole blood, target tissue, and non-target tissue concentration versus time data, using Phoenix WinNonlin (version 8.1) non-compartment analysis function (linear trapezoidal rule for AUC calculations). Nominal dose values and sampling times were used for calculations. Any concentration reported as BLQ (LLOQ<0.100 ng/mL) was set equal to zero. Time points were manually evaluated for the determination of lambda z (R2>0.75), the elimination rate constant, upon which half-life (t1/2) was based.
For the rabbit and porcine study, pharmacokinetic analyses included Cmax, Tmax, Tlast, AUC0-24, AUClast, t1/2, and MRTlast and is presented in Table 2. Below.

Experiment in data set [2]: as above
The data set is classed as in vivo, Yucatan Miniature Swine. The following applies: for concentration at 60 days: Yucatan miniature swine, pig, coronary artery, stented segment, other: drug-eluting stent implanted in coronary arteries.

Turning to `CO[C@H]1C[C@@H]2CC[C@@H](C)[C@@](O)(O2)C(=O)C(=O)N2CCCC[C@H]2C(=O)O[C@H]([C@H](C)C[C@@H]2CC[C@@H](O)[C@H](OC)C2)CC(=O)[C@H](C)/C=C(\C)[C@@H](O)[C@@H](OC)C(=O)[C@H](C)C[C@H](C)/C=C/C=C/C=C/1C` [Rapamycin, Sirolimus (rapamycin)], the concentration at 1 days in data set [1] (Yucatan miniature swine, pig, coronary artery, stented segment, other: drug-eluting stent implanted in coronary arteries, study day 1, BuMA Supreme stent, porcine, read-out: Arterial drug concentration) is 1630 ± 239 ng/g. The concentration at 3 days in data set [1] (Yucatan miniature swine, pig, coronary artery, stented segment, other: drug-eluting stent implanted in coronary arteries, study day 3, read-out: Arterial drug concentration) was 2270 ± 735 ng/g. In data set [1] (Yucatan miniature swine, pig, coronary artery, stented segment, other: drug-eluting stent implanted in coronary arteries, study day 7, read-out: Arterial drug concentration), the concentration at 7 days is 2580 ± 1430 ng/g. For the same molecule, the concentration at 14 days in data set [1] (Yucatan miniature swine, pig, coronary artery, stented segment, other: drug-eluting stent implanted in coronary arteries, study day 14, read-out: Arterial drug concentration) is 3700 ± 1710 ng/g. For the same molecule, the concentration at 21 days in data set [1] (Yucatan miniature swine, pig, coronary artery, stented segment, other: drug-eluting stent implanted in coronary arteries, study day 21, read-out: Arterial drug concentration) worked out at 9850 ± 4720 ng/g. Further, the concentration at 28 days in data set [1] (Yucatan miniature swine, pig, coronary artery, stented segment, other: drug-eluting stent implanted in coronary arteries, study day 28, read-out: Arterial drug concentration) worked out at 6780 ± 4140 ng/g. Also, the concentration at 90 days in data set [1] (Yucatan miniature swine, pig, coronary artery, stented segment, other: drug-eluting stent implanted in coronary arteries, study day 90, read-out: Arterial drug concentration) was 451 ± 188 ng/g. The concentration at 150 days in data set [1] (Yucatan miniature swine, pig, coronary artery, stented segment, other: drug-eluting stent implanted in coronary arteries, study day 150, read-out: Arterial drug concentration) was determined as 109 ± 12.1 ng/g. Further, the “time at which maximum concentration of the drug in the artery occurred” value in data set [1] (after implantation, stented area) is 21 days. The “maximum concentration of the drug in the artery (stented area)” value in data set [1] (average, 21 days after implantation, porcine coronary artery, BuMA Supreme stent) came to 9.85±4.72 μg/gm. The “drug concentration in artery segments proximal and distal to the stented segment, relative to the stented segment value” in data set [1] (in vivo) is reported as 3-11%. Moreover, the concentration at 60 days in data set [2] (by 60 days, read-out: concentration of the drug in the artery (stented area)) was found to be 920 ± 200 ng/g; in data set [2] (study day 60, read-out: Arterial drug concentration) it was 922 ± 203 ng/g. The “samples with measurable drug levels in the artery” value in data set [2] (at 154 and 202 days) was “five of the twelve”.
